Laboratory results reported in patent publication US10294234B2, “HIV inhibitor compounds” (priority 2017, dated 2019).
Read-outs that look alike come from different tables or passages of the source.

Key:
[1] = test system: HIV-1 (IIIB) in MT-4 cells; test: MT-4 HIV assay; type: cell-based
Method in brief: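 Antiviral activity was read by Cell Titer Glo after a 5-day, 37 °C culture of MT-4 cells pre-infected with a 1:250 dilution of HIV-1 (IIIB). Compounds were tested as threefold dilution series in complete RPMI. Controls were no drug, mock infection and 5 uM AZT.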

[2] = Method in brief: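 Depletion measured by LC/MS/MS at 2, 12, 25, 45 and 65 minutes after 1 uM compound was added to liver microsomes (0.5 mg/mL; dog, rat, human) with NADPH-regenerating cofactor, in duplicate. In vitro t1/2 converted to Clint.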
[3] = Human immunodeficiency virus 1, MT4, 120 h
[4] = human liver microsomes 0.5 mg/mL, 1 uM compound, NADPH
[5] = rat liver microsomes 0.5 mg/mL, 1 uM compound, NADPH
[6] = Human immunodeficiency virus 1, MT4, 120 h, HIV-1 (IIIB), MT-4 cells, 5 days, Cell Titer Glo, read-out: EC50

| SMILES | EC50 [1, 3] | Dog. Pred. Cl. ([2]; dog liver microsomes 0.5 mg/mL, 1 uM compound, NADPH) | Human Pred Cl. [2, 4] | Rat. Pred. Cl. [2, 5] | EC50 [1, 6] | Human Pred Cl. ([2]; human, microsomes) | Rat. Pred. Cl. ([2]; rat, microsomes) | EC50 ([1]; HIV-1 (IIIB), MT-4 cells, 5 days, Cell Titer Glo, read-out: EC50) |
| --- | --- | --- | --- | --- | --- | --- | --- | --- |
| COC(=O)N[C@H](C(=O)N[C@@H](Cc1ccc(C#Cc2ccc(N3C[C@H]4C[C@@H]3CN4C3COC3)nc2)cc1)[C@@H](O)CN(Cc1c(F)cc(-c2ccn(CC(F)F)n2)cc1F)NC(=O)[C@@H](NC(=O)OC)C(C)(C)C(F)(F)F)C(C)(C)C(F)(F)F [Example 43, Methyl ((5S,8S,9S,14S)-11-(4-(1-(2,2-difluoroethyl)-1H-pyrazol-3-yl)-2,6-difluorobenzyl)-16,16,16-trifluoro-9-hydroxy-15,15-dimethyl-8-(4-((6-((1R,4R)-5-(oxetan-3-yl)-2,5-diazabicyclo[2.2.1]heptan-2-yl)pyridin-3-yl)ethynyl)benzyl)-3,6,13-trioxo-5-(1,1,1-trifluoro-2-methylpropan-2-yl)-2-oxa-4,7,11,12-tetraazahexadecan-14-yl)carbamate] | 2.87 nM | 1.66 L/H/kg | 0.16 L/H/kg | 1.01 L/H/kg | – | – | – | – |
| COC(=O)N[C@H](C(=O)N[C@@H](Cc1ccc(C#Cc2ccc(N3CC4CCC(C3)N4C3COC3)nc2)cc1)[C@@H](O)CN(Cc1c(F)cc(-c2ccc(N3CC4CCC(C3)N4C3COC3)nc2)cc1F)NC(=O)[C@@H](NC(=O)OC)C(C)(C)C(F)(F)F)C(C)(C)C(F)(F)F [Example 147, Methyl ((5S,8S,9S,14S)-11-(2,6-difluoro-4-(6-(8-(oxetan-3-yl)-3,8-diazabicyclo[3.2.1]octan-3-yl)pyridin-3-yl)benzyl)-16,16,16-trifluoro-9-hydroxy-15,15-dimethyl-8-(4-((6-(8-(oxetan-3-yl)-3,8-diazabicyclo [3.2.1]octan-3-yl)pyridin-3-yl)ethynyl)benzyl)-3,6,13-trioxo-5-(1,1,1-trifluoro-2-methylpropan-2-yl)-2-oxa-4,7,11,12-tetraazahexadecan-14-yl)carbamate] | – | – | – | – | 6.79 nM | <0.11 L/H/kg | – | – |
| COC(=O)N[C@H](C(=O)N[C@@H](Cc1ccc(-c2ccc3nc(N4CC5CCC(C4)N5C4COC4)ccc3n2)cc1)[C@@H](O)CN(Cc1c(F)cc(-c2ccn(C(F)F)n2)cc1F)NC(=O)[C@@H](NC(=O)OC)C(C)(C)C(F)(F)F)C(C)(C)C(F)(F)F [Example 200, Methyl ((5S,8S,9S,14S)-11-(4-(1-(difluoromethyl)-1H-pyrazol-3-yl)-2,6-difluorobenzyl)-16,16,16-trifluoro-9-hydroxy-15,15-dimethyl-8-(4-(6-(8-(oxetan-3-yl)-3,8-diazabicyclo[3.2.1]octan-3-yl)-1,5-naphthyridin-2-yl)benzyl)-3,6,13-trioxo-5-(1,1,1-trifluoro-2-methylpropan-2-yl)-2-oxa-4,7,11,12-tetraazahexadecan-14-yl)carbamate] | – | – | – | – | 4.36 nM | <0.11 L/H/kg | 0.19 L/H/kg | – |
| COC(=O)N[C@H](C(=O)N[C@@H](Cc1ccc(C#Cc2cnc(N3CC4CCC(C3)N4C3COC3)cc2C)cc1)[C@@H](O)CN(Cc1c(F)cc(-c2cnn(C(F)F)c2)cc1F)NC(=O)[C@@H](NC(=O)OC)C(C)(C)C(F)(F)F)C(C)(C)C(F)(F)F [Example 154, Methyl ((5S,8S,9S,14S)-11-(4-(1-(difluoromethyl)-1H-pyrazol-4-yl)-2,6-difluorobenzyl)-16,16,16-trifluoro-9-hydroxy-15,15-dimethyl-8-(4-((4-methyl-6-(8-(oxetan-3-yl)-3,8-diazabicyclo[3.2.1]octan-3-yl)pyridin-3-yl)ethynyl)benzyl)-3,6,13-trioxo-5-(1,1,1-trifluoro-2-methylpropan-2-yl)-2-oxa-4,7,11,12-tetraazahexadecan-14-yl)carbamate] | – | – | – | – | 4.81 nM | <0.11 L/H/kg | <0.18 L/H/kg | – |
| COC(=O)N[C@H](C(=O)N[C@@H](Cc1ccc(C#Cc2ccc(-c3cn4c(n3)CN(C)C(=O)C4)cc2)cc1)[C@@H](O)CN(Cc1c(F)cc(-c2ccn(C(F)F)n2)cc1F)NC(=O)[C@@H](NC(=O)OC)C(C)(C)C(F)(F)F)C(C)(C)C(F)(F)F [Example 134, Methyl ((5S,8S,9S,14S)-11-(4-(1-(difluoromethyl)-1H-pyrazol-3-yl)-2,6-difluorobenzyl)-16,16,16-trifluoro-9-hydroxy-15,15-dimethyl-8-(4-((4-(7-methyl-6-oxo-5,6,7,8-tetrahydroimidazo[1,2-a]pyrazin-2-yl)phenyl)ethynyl)benzyl)-3,6,13-trioxo-5-(1,1,1-trifluoro-2-methylpropan-2-yl)-2-oxa-4,7,11,12-tetraazahexadecan-14-yl)carbamate] | – | – | <0.11 L/H/kg | <0.18 L/H/kg | 5.52 nM | – | – | – |
| COC(=O)N[C@H](C(=O)N[C@@H](Cc1ccc(C#Cc2ccc(N3CCN(C4CCOCC4)CC3)nc2)cc1)[C@@H](O)CN(Cc1c(F)cc(-c2cnn(C(F)F)c2)cc1F)NC(=O)[C@@H](NC(=O)OC)C(C)(C)C(F)(F)F)C(C)(C)C(F)(F)F [Example 115, Methyl ((5S,8S,9S,14S)-11-(4-(1-(difluoromethyl)-1H-pyrazol-4-yl)-2,6-difluorobenzyl)-16,16,16-trifluoro-9-hydroxy-15,15-dimethyl-3,6,13-trioxo-8-(4-((6-(4-(tetrahydro-2H-pyran-4-yl)piperazin-1-yl)pyridin-3-yl)ethynyl)benzyl)-5-(1,1,1-trifluoro-2-methylpropan-2-yl)-2-oxa-4,7,11,12-tetraazahexadecan-14-yl)carbamate] | – | – | 0.12 L/H/kg | <0.18 L/H/kg | 3.19 nM | – | – | – |
| COC(=O)N[C@H](C(=O)N[C@@H](Cc1ccc(C#Cc2cnc(N3CC4CCC(C3)N4C3COC3)nc2)cc1)[C@@H](O)CN(Cc1c(F)cc(-c2cn(C(F)F)cn2)cc1F)NC(=O)[C@@H](NC(=O)OC)C(C)(C)C(F)(F)F)C(C)(C)C(F)(F)F [Example 133, Methyl ((5S,10S,11S,14S)-8-(4-(1-(difluoromethyl)-1H-imidazol-4-yl)-2,6-difluorobenzyl)-16,16,16-trifluoro-10-hydroxy-15,15-dimethyl-11-(4-((2-(8-(oxetan-3-yl)-3,8-diazabicyclo[3.2.]octan-3-yl)pyrimidin-5-yl)ethynyl)benzyl)-3,6,13-trioxo-5-(1,1,1-trifluoro-2-methylpropan-2-yl)-2-oxa-4,7,8,12-tetraazahexadecan-14-yl)carbamate] | – | – | <0.11 L/H/kg | <0.18 L/H/kg | – | – | – | 3.44 nM |
| COC(=O)N[C@H](C(=O)N[C@@H](Cc1ccc(-c2ccc(N3CC4CCC(C3)N4C3COC3)nc2)cc1)[C@@H](O)CN(Cc1c(F)cc(-c2ccn(C)n2)cc1F)NC(=O)[C@@H](NC(=O)OC)C(C)(C)C)C(C)(C)C [Example 206, Methyl ((5S,8S,9S,14S)-5-(tert-butyl)-11-(2,6-difluoro-4-(1-methyl-1H-pyrazol-3-yl)benzyl)-9-hydroxy-15,15-dimethyl-8-(4-(6-(8-(oxetan-3-yl)-3,8-diazabicyclo [3.2.1]octan-3-yl)pyridin-3-yl)benzyl)-3,6,13-trioxo-2-oxa-4,7,11,12-tetraazahexadecan-14-yl)carbamate] | – | – | – | – | 3.7 nM | 0.41 L/H/kg | 1.03 L/H/kg | – |
| COC(=O)N[C@H](C(=O)N[C@@H](Cc1ccc(C#Cc2ccc(N3C[C@H]4C[C@@H]3CN4C3COC3)nc2)cc1)[C@@H](O)CN(Cc1c(F)cc(-c2ccn(C3CC3)n2)cc1F)NC(=O)[C@@H](NC(=O)OC)C(C)(C)C(F)(F)F)C(C)(C)C(F)(F)F [Example 45, Methyl ((5S,8S,9S,14S)-11-(4-(1-cyclopropyl-1H-pyrazol-3-yl)-2,6-difluorobenzyl)-16,16,16-trifluoro-9-hydroxy-15,15-dimethyl-8-(4-((6-((1R,4R)-5-(oxetan-3-yl)-2,5-diazabicyclo[2.2.1]heptan-2-yl)pyridin-3-yl)ethynyl)benzyl)-3,6,13-trioxo-5-(1,1,1-trifluoro-2-methylpropan-2-yl)-2-oxa-4,7,11,12-tetraazahexadecan-14-yl)carbamate] | 2.56 nM | – | <0.11 L/H/kg | 0.92 L/H/kg | – | – | – | – |
| COC(=O)N[C@H](C(=O)N[C@@H](Cc1ccc(C#Cc2cnc(N3CC4CCC(C3)N4C3COC3)nc2)cc1)[C@@H](O)CN(Cc1c(F)cc(-c2cnc(N3CC4CCC(C3)N4C3COC3)nc2)cc1F)NC(=O)[C@@H](NC(=O)OC)C(C)(C)C(F)(F)F)C(C)(C)C(F)(F)F [Example 120, Methyl ((5S,8S,9S,14S)-11-(2,6-difluoro-4-(2-(8-(oxetan-3-yl)-3,8-diazabicyclo[3.2.1]octan-3-yl)pyrimidin-5-yl)benzyl)-16,16,16-trifluoro-9-hydroxy-15,15-dimethyl-8-(4-((2-(8-(oxetan-3-yl)-3,8-diazabicyclo[3.2.1]octan-3-yl)pyrimidin-5-yl)ethynyl)benzyl)-3,6,13-trioxo-5-(1,1,1-trifluoro-2-methylpropan-2-yl)-2-oxa-4,7,11,12-tetraazahexadecan-14-yl)carbamate] | – | – | – | – | 5.36 nM | 0.14 L/H/kg | 0.53 L/H/kg | – |
| COC(=O)N[C@H](C(=O)NN(Cc1c(F)cc(-c2cn(C(F)F)cn2)cc1F)C[C@H](O)[C@H](Cc1ccc(C#Cc2ccc(N3CC4CCC(C3)N4C3COC3)nc2)cc1)NC(=O)[C@@H](NC(=O)OC)C(C)(C)C(F)(F)F)C(C)(C)C [Example 77, Methyl ((5S,8S,9S,14S)-11-(4-(1-(difluoromethyl)-1H-imidazol-4-yl)-2,6-difluorobenzyl)-9-hydroxy-15,15-dimethyl-8-(4-((6-(8-(oxetan-3-yl)-3,8-diazabicyclo [3.2.1]octan-3-yl)pyridin-3-yl)ethynyl)benzyl)-3,6,13-trioxo-5-(1,1,1-trifluoro-2-methylpropan-2-yl)-2-oxa-4,7,11,12-tetraazahexadecan-14-yl)carbamate] | – | – | – | – | 2.49 nM | <0.11 L/H/kg | 0.25 L/H/kg | – |
